# Measured values as given in US20090048233A1, “Enhancing the Tolerability of a Seratonin Antagonist and a NSRI, a SNRI or a RIMA by Using Them in Combination” (CYPRESS BIOSCIENCES, INC., priority 2007, published 2009).
# Key:
# [1] = test system: normal, health subjects; test: Example 1 tolerability study, mirtazapine and milnacipran or duloxetine; conditions: 6 weeks, 15 mg mirtazapine or 100 mg milnacipran or duloxetine
# Description: (§1) The subjects receive 2 capsules per day, one in the morning and one at bedtime. […] All medications are administered in an over-encapsulated format that ensures blinding of study participants, staff and investigators. All subjects are scheduled to receive a total of 6 weeks of therapy, and are required to return to the clinics after 1, 2, 4 and 6 weeks of therapy. Patients are required to complete paper self-assessments, electronic diary assessments, computer based cognitive testing, as well as vital signs and weight assessments at the clinic visits.
# [2] = test system: normal, health subjects; test: Example 1A tolerability study, mirtazapine and 1S,2R-enriched milnacipran; conditions: 6 weeks, milnacipran with 1S,2R:1R,2S ratio about 55:45 to 90:10
# Description: as §1
# [3] = test system: normal, health subjects; test: Example 4 tolerability study, mirtazapine and milnacipran; conditions: 6 weeks, 15 mg mirtazapine or 50 mg milnacipran
# Description: as §1
# [4] = test system: reuptake of noradrenaline and serotonin; conditions: in vivo; cited from earlier work
# [5] = controlled studies; cited from earlier work
# [6] = test system: normal, health subjects; test: Example 5 tolerability study, mirtazapine and duloxetine; format: in vivo, human; conditions: 6 weeks, 15 mg mirtazapine or 30 mg duloxetine
# [7] = test system: patients with fibromyalgia; conditions: open study; cited from earlier work
# [8] = test system: chronic tension type headache; conditions: controlled trial; cited from earlier work
# [9] = test system: cancer patients with pain; conditions: open trial in cancer pain, 15 and 30 mg; cited from earlier work
SMILES,side effects of the drug alone [1],side effects of the drug alone [2],side effects of the drug alone [3],potency for inhibiting the reuptake of both noradrenaline and serotonin [4],"appetite increase reported, share of patients [5]","weight gain of greater than or equal to 7% of body weight reported, share of patients [5]",side effects of the drug alone [6],activity in fibromyalgia pain [7],efficacy in chronic tension type headache [8],depression levels [9],pain intensity [9]
"CCN(CC)C(=O)[C@@]1(c2ccccc2)C[C@H]1CN (racemic) [milnacipran, cis-(±)-2-(aminomethyl)-N,N-diethyl-1-phenylcyclopropanecarboxamide]","causes insomnia, nausea/vomiting, and weight loss","causes insomnia, nausea/vomiting, and weight loss","causes insomnia, nausea/vomiting, and weight loss",nearly equal potency,–,–,–,–,–,–,–
CN(C)CCC=C1c2ccccc2CCc2ccccc21 [amitriptyline],–,–,–,–,6%,5.9%,–,–,–,–,–
"CNCC[C@H](Oc1cccc2ccccc12)c1cccs1 [duloxetine, (+)-(S)—N-methyl-3-(1-naphthyloxy)-3-(thiophen-2-yl)-propan-1-amine]","causes insomnia, nausea/vomiting, and weight loss","causes insomnia, nausea/vomiting, and weight loss","causes insomnia, nausea/vomiting, and weight loss",–,–,–,"causes insomnia, nausea/vomiting, and weight loss",–,–,–,–
"CN1CCN2c3ncccc3Cc3ccccc3C2C1 (stereo not drawn) [mirtazapine, 1,2,3,4,10,14b-hexahydro-2-methylpyrazino [2,1-a]pyrido[2,3-c]benzazepine]","does cause weight gain, sedation, and cognitive deficits","does cause weight gain, sedation, and cognitive deficits","does cause weight gain, sedation, and cognitive deficits",–,–,–,"does cause weight gain, sedation, and cognitive deficits",has some activity in fibromyalgia pain,suggested efficacy in chronic tension type headache,significant improvements were obtained in depression levels,pain intensity was not statistically improved
